Laboratory results as given in US7935680B2, “Methods for modulating the axonal growth of central nervous system neurons” (Children's Medical Center Corporation, priority 1997, dated 2011).
“Also recorded” adds a separate entry of the source.

B1: CNTF: Ciliary neurotrophic factor (protein, UniProt P26441 1-200, looked up)
Ciliary neurotrophic factor: MAFTEHSPLTPHRRDLCSRSIWLARKIRSDLTALTESYVKHQGLNKNINLDSADGMPVASTDQWSELTEAERLQENLQAYRTFHVLLARLLEDQQVHFTPTEGDFHQAIHTLLLQVAAFAYQIEELMILLEYKIPRNEADGMPINVGDGGLFEKKLWGLKVLQELSQWTVRSIHDLRFISSHQTGIPARGSHYIANNKKM

Experiments:
Type in all cases: cell-based
GAP-43 = GAP-43 immunohistochemistry in goldfish retinal ganglion cells
Experimental: One hallmark of optic nerve regeneration in vivo is the enhanced expression of the membrane phosphoprotein GAP-43. To investigate whether this upregulation is induced by purines, immunohistochemistry was carried out using a polyclonal rabbit antiserum against recombinant […] GAP-43. Recombinant zebrafish GAP-43 was made by transforming E. coli with a cDNA isolated by Dr. Eva Reinhard, University of Basel, Switzerland (see Reinhard et al., Development, 120: 1757-1775, 1994, the contents of which are incorporated herein by reference) subcloned into the prokaryotic expression vector pTrcHisB (Invitrogen). The protein produced was purified by Ni^2+-NTA-affinity chromatography and used to immunize rabbits. […] Inosine produced a 5.5-fold increase in the number of intensely stained cells over L-15, whereas AF-1 produced a 8-fold increase. In all 3 cases, the intensity of GAP-43 immunostaining correlated strongly with axonal length.

[1] = system: rat retinal ganglion cells; test: Axonal outgrowth from purified rat retinal ganglion cells; settings: rat RGCs
Experimental: Goldfish (Comet Variety, Mt. Parnell Fisheries, Mt. Parnell Pa.), 6-10 cm in length, were dark-adapted and their retinas dissected. Retinas were incubated with papain (20 μg/ml), activated with cysteine (2.8 mM) for 30 minutes at room temperature, then dissociated by gentle trituration. Repeated cycles of trituration and sedimentation yielded cultures nearly homogeneous in ganglion cells, which are readily identified by their oval shape, phase-bright appearance, size (diameter 15 μm), and extension of only 1 or 2 neurites of uniform caliber; these criteria have been verified by retrograde labeling (see Schwartz & Agranoff, Brain Res. 206: 331-343, 1981 and Schwalb et al., J. Neuroscience 15: 5514-5625, 1995, the contents of which are incorporated herein by reference). Low density cultures were achieved by plating c. 5×10^3 cells/well into poly L-lysine coated, 24-well culture dishes (Costar, Cambridge, Mass.). Cells were maintained at 21° C. in serum free, defined media containing insulin, selenium, transferrin, bovine serum albumin, catalase, superoxide dismutase, hormones, and vitamins in Eagle's L-15 media as described in Schwalb et al., 1995, the contents of which are incorporated herein by reference). Dissociated cultures of purified rat retinal ganglion cells were prepared by immunopanning as described in Barres et al., Neuron, 1: 791-803, 1988, the contents of which are incorporated herein by reference). In brief, retinas from postnatal day 8 Sparague-Dawley rats were dissociated using papain activated with cysteine. Macrophages were removed by incubation with an anti-rat macrophage antibody (Accurate) followed by immunopanning with an anti-rabbit 1gG antibody. Ganglion cells were isolated by immunopanning with an anti-Thy-1 antibody, then dislodged with trypsin for use in low-density cultures. Rat retinal ganglion cells were maintained at 37° C. in a CO2 incubator using the same medium described above except for the presence of 30 mM bicarbonate.
In a typical experiment, samples were plated in quadruplicate in randomized positions of a 24-well plate and the code was concealed to ensure that growth was evaluated in a blinded fashion. Each experiment contained 4 wells of a negative control (media plus supplements only) and 4 wells of a positive control (a standardized AF-1 sample of known activity). Growth and survival were assessed after 6 days for all ganglion cells in 25 consecutive fields of each well using phase contrast microscopy at 400× magnification (c. 150 ganglion cells counted per well). Extension of a process 5 cell diameters in length was the criterion for growth, since it clearly distinguishes stimulated cells from negative controls (see Schwalb et al., 1995). After the completion of counting, the code was broken, the data tabulated, and means and standard errors were calculated for the 4 replicate wells of each sample using Cricket Graph (CA Associates, Islandia, N.Y.). Data were normalized by subtracting the growth in the negative controls (usually 4-5%) and dividing by the net growth in the positive controls. In the most favorable experiments, more than 50% of retinal ganglion cells (RGCs) exposed to AF-1 extended axons 5 cell diameters in length after 6 days. Group comparisons were based upon pairwise, 2-tailed Student's t-tests. Several independent experiments were performed for most samples, as noted in the figure legends. In some cases, cell viability was assessed with the dye 5,6-carboxyfluorescein diacetate. […]

[2] = system: goldfish retinal ganglion cells; test: Axonal outgrowth from dissociated goldfish retinal ganglion cell cultures; settings: for restoration of AF-1-induced growth in the presence of 10 μM 6-TG: inosine 100 μM
Experimental: Axogenesis factor-1 was obtained essentially as described in Schwalb et al., 1995, and Schwalb et al., Neuroscience, 72: 901-910, 1996, the contents of which are incorporated herein by reference). Optic nerves were dissected, cut into fragments 1 mm in length, and incubated in a ratio of 6 nerves in 3 ml of either L-15 media (Gibco BRL) or phosphate-buffered saline (Gibco BRL). After 3-4 hours, nerve fragments were removed by filtering through a 0.22 μm pore low protein-binding filter (Gelman). A low molecular weight fraction of the conditioned media was prepared by ultrafiltration, first with a molecular weight cut-off of 3 kDa (Amicon Centriprep-3), then with a cut-off of 1 kDa (Filtron). The filtrate was used as a positive control at 20-30% final concentration. […] Goldfish (Comet Variety, Mt. Parnell Fisheries, Mt. Parnell Pa.), 6-10 cm in length, were dark-adapted and their retinas dissected. Retinas were incubated with papain (20 μg/ml), activated with cysteine (2.8 mM) for 30 minutes at room temperature, then dissociated by gentle trituration. […] Neuroscience 15: 5514-5625, 1995, the contents of which are incorporated herein by reference). […] Cells were maintained at 21° C. in serum free, defined media containing insulin, selenium, transferrin, bovine serum albumin, catalase, superoxide dismutase, hormones, and vitamins in Eagle's L-15 media as described in Schwalb et al., 1995, the contents of which are incorporated herein by reference). Dissociated cultures of purified rat retinal ganglion cells were prepared by immunopanning as described in Barres et al., Neuron, 1: 791-803, 1988, the contents of which are incorporated herein by reference). In brief, retinas from postnatal day 8 Sparague-Dawley rats were dissociated using papain activated with cysteine. Macrophages were removed by incubation with an anti-rat macrophage antibody (Accurate) followed by immunopanning with an anti-rabbit 1gG antibody. Ganglion cells were isolated by immunopanning with an anti-Thy-1 antibody, then dislodged with trypsin for use in low-density cultures. Rat retinal ganglion cells were maintained at 37° C. in a CO2 incubator using the same medium described above except for the presence of 30 mM bicarbonate. In a typical experiment, samples were plated in quadruplicate in randomized positions of a 24-well plate and the code was concealed to ensure that growth was evaluated in a blinded fashion. Each experiment contained 4 wells of a negative control (media plus supplements only) and 4 wells of a positive control (a standardized AF-1 sample of known activity). […] After the completion of counting, the code was broken, the data tabulated, and means and standard errors were calculated for the 4 replicate wells of each sample using Cricket Graph (CA Associates, […].). […] Group comparisons were based upon pairwise, 2-tailed Student's t-tests. Several independent experiments were performed for most samples, as noted in the figure legends. […] Cell survival is reported as the number of viable RGCs per high-powered field.

[3] = system: rat retinal ganglion cells; test: Cell survival of purified rat retinal ganglion cells; settings: CNTF, rat RGCs
Experimental: Goldfish (Comet Variety, Mt. Parnell Fisheries, Mt. Parnell Pa.), 6-10 cm in length, were dark-adapted and their retinas dissected. Retinas were incubated with papain (20 μg/ml), activated with cysteine (2.8 mM) for 30 minutes at room temperature, then dissociated by gentle trituration. Repeated cycles of trituration and sedimentation yielded cultures nearly homogeneous in ganglion cells, which are readily identified by their oval shape, phase-bright appearance, size (diameter 15 μm), and extension of only 1 or 2 neurites of uniform caliber; these criteria have been verified by retrograde labeling (see Schwartz & Agranoff, Brain Res. 206: 331-343, 1981 and Schwalb et al., J. Neuroscience 15: 5514-5625, 1995, the contents of which are incorporated herein by reference). […]
In a typical experiment, samples were plated in quadruplicate in randomized positions of a 24-well plate and the code was concealed to ensure that growth was evaluated in a blinded fashion. […] Growth and survival were assessed after 6 days for all ganglion cells in 25 consecutive fields of each well using phase contrast microscopy at 400× magnification (c. 150 ganglion cells counted per well). […] After the completion of counting, the code was broken, the data tabulated, and means and standard errors were calculated for the 4 replicate wells of each sample using Cricket Graph (CA Associates, Islandia, N.Y.). […]

| Molecule | increase in the number of intensely stained cells over L-15 (GAP-43; GAP-43 immunoreactivity score 2 (intense), 150-200 cells) | GAP-43 levels relative to L-15 treated controls (GAP-43; immunostaining) | restoration of CNTF stimulated growth in the presence of 10 μM 6-TG ([1]; inosine 25 μM) | restoration of CNTF-induced outgrowth in the presence of 10 μM 6-TG ([1]; inosine 50 μM) | increase in the number of cells extending axons 5 cell diameters in length ([1]; inosine at 25 or 50 μM) | EC50 ([2]; Carassius auratus, 144 h, goldfish RGCs, 6 days, estimated from dose-response curves) | Emax ([2]; Carassius auratus, normalized to AF-1 positive control, adenosine 50-100 μM, guanosine 100 μM, inosine above 25 or 50 μM, read-out: maximal response relative to the level induced by AF-1) | outgrowth at higher concentrations ([2]; concentrations above those giving the maximal response) | dependence of outgrowth on cell density ([2]; fixed concentration (100 μM), 3-4-fold range of cell densities) | restoration of AF-1-induced growth in the presence of 10 μM 6-TG [2] | restoration of AF-1-induced growth in the presence of 10 μM 6-TG ([2]; listed as Inosine) | combined effect with AF-1 ([2]; inosine and AF-1 at saturating / higher concentrations) | combined effect with AF-1 ([2]; inosine and AF-1 each at EC50 (half-maximal) levels) | outgrowth compared with inosine ([1]; CNTF) | cell survival [3] |
| --- | --- | --- | --- | --- | --- | --- | --- | --- | --- | --- | --- | --- | --- | --- | --- |
| OC[C@H]1O[C@@H](n2cnc3c(O)ncnc32)[C@H](O)[C@@H]1O [inosine] | 5.5 fold | large increase in GAP-43 levels | fully restored | restored CNTF-induced outgrowth nearly to its original level | 50% | 10 to 15 µM | ~60% | did not cause growth to decline | growth is not a function of cell density; also recorded: independent of cell density | fully restored the growth induced by AF-1 | restored all of the growth induced by AF-1 | growth saturates at the level stimulated by high AF-1 levels alone; also recorded: growth reached a plateau level | additive effects |  |  |
| B1 |  |  |  |  |  |  |  |  |  |  |  |  |  | much larger increase in outgrowth | enhanced cell survival |
